Tests used:
[1] = Plasma PK of comparative compound without sulfur moiety in male CD1 mice; type: in vivo, mouse; settings: Mesylate Salt
Method: Formulation: 10% DMSO, 90% Saline
Dosing: 10 mg/kg P.O. and 5 mg/kg I.V.

PI3K p110γ = target: T1, PI3K p110γ (Homo sapiens, UniProt P48736); experiment: IC50 determination, HTRF biochemical assay (Reaction Biology Corp.)
T1 construct: assay run at Proqinase GmbH
From the text: (§1) Biochemical activity against class I PI3K isoforms was confirmed by either Ki determination using the non-radiometric ADP-Glo™ assay (Promega, Madison, Wis., USA) at Proqinase GmbH, or IC50 determination using the HTRF biochemical assay at Reaction Biology Corp.

PI3K p110α = target: T2, PI3K p110α (Homo sapiens, UniProt P42336); experiment: as above
T2 construct: assay run at Proqinase GmbH
From the text: as §1

PI3K p110β = target: T3, PI3K p110β (Homo sapiens, UniProt P42338); experiment: as above
T3 construct: assay run at Proqinase GmbH
From the text: as §1

PI3K p110δ = target: T4, PI3K p110δ (Homo sapiens, UniProt O00329); experiment: as above
T4 construct: assay run at Proqinase GmbH
From the text: as §1

[2] = IV, 5 mg/kg, male CD1 mouse plasma

T4 sequence (O00329 whole entry): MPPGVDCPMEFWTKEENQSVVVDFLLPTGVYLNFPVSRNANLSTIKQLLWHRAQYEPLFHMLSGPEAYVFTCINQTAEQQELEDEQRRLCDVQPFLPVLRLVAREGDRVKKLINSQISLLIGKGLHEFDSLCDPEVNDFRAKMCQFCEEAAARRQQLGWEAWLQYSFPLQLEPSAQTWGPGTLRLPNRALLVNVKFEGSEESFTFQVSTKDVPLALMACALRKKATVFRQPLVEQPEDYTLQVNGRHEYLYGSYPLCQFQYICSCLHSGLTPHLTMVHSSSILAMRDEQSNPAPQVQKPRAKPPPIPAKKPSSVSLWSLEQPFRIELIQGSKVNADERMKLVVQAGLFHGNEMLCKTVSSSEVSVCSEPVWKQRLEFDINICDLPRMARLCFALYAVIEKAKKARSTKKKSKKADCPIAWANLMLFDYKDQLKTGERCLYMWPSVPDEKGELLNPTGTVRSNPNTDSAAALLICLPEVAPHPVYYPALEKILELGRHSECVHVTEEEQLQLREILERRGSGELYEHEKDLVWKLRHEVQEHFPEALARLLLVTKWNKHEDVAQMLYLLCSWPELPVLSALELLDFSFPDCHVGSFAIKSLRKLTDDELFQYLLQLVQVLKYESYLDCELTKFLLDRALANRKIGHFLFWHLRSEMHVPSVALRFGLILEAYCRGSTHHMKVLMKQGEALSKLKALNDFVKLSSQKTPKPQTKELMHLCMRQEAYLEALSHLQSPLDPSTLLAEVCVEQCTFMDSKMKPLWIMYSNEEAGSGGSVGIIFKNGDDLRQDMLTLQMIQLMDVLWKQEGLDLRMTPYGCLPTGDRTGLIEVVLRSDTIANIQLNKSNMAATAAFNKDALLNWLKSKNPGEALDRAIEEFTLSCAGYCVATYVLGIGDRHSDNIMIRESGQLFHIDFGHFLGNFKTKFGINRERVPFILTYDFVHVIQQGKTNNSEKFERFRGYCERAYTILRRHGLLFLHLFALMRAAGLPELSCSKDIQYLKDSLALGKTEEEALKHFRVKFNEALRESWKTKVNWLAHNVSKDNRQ
T4 sequence (P27986 whole entry partner): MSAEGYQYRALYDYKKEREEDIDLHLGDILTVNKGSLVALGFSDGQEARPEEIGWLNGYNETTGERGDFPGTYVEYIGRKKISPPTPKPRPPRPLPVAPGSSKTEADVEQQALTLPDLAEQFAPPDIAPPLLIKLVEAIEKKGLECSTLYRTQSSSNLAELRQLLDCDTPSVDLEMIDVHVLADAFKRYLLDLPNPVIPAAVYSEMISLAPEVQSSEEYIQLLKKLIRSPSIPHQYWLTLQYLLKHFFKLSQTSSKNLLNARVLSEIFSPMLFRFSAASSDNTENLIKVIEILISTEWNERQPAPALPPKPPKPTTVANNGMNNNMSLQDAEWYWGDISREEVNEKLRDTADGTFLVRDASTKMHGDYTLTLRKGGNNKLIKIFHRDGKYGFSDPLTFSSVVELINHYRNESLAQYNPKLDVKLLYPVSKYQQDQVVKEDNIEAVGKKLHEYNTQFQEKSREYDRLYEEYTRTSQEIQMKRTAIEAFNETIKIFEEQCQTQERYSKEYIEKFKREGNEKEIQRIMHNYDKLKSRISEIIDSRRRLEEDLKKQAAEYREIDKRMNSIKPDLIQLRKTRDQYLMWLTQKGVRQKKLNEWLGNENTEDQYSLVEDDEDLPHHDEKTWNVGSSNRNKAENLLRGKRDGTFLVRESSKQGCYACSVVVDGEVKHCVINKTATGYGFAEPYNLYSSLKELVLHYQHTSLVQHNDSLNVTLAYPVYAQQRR
T1 sequence (P48736 whole entry): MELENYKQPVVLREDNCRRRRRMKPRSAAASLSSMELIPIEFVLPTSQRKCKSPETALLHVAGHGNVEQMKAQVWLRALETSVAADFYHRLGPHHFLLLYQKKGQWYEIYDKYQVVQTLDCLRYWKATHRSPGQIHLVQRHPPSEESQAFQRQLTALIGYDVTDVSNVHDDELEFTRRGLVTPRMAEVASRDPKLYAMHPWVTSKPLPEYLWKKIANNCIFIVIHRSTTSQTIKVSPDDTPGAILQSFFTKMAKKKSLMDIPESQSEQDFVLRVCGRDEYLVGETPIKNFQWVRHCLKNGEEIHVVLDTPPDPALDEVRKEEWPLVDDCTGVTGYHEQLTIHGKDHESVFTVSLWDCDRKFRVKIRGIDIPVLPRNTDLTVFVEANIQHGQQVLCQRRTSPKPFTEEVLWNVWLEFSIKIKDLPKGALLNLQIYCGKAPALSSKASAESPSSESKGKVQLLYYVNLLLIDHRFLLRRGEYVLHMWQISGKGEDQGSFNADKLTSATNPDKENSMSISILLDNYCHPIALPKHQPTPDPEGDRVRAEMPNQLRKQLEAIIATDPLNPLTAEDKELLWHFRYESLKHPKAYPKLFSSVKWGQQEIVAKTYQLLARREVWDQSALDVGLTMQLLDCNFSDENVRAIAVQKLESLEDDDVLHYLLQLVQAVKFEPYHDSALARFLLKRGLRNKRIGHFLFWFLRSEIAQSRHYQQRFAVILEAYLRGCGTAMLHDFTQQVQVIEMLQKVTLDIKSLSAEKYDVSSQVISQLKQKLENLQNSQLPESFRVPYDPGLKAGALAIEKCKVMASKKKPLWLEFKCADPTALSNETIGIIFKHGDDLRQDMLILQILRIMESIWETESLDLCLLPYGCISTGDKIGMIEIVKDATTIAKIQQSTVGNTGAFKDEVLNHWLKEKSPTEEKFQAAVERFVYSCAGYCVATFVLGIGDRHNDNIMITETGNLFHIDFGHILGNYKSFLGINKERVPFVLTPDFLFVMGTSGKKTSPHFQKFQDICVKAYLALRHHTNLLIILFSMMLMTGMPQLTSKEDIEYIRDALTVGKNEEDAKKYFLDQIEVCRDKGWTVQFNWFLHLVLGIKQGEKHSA
T3 sequence (P42338 whole entry): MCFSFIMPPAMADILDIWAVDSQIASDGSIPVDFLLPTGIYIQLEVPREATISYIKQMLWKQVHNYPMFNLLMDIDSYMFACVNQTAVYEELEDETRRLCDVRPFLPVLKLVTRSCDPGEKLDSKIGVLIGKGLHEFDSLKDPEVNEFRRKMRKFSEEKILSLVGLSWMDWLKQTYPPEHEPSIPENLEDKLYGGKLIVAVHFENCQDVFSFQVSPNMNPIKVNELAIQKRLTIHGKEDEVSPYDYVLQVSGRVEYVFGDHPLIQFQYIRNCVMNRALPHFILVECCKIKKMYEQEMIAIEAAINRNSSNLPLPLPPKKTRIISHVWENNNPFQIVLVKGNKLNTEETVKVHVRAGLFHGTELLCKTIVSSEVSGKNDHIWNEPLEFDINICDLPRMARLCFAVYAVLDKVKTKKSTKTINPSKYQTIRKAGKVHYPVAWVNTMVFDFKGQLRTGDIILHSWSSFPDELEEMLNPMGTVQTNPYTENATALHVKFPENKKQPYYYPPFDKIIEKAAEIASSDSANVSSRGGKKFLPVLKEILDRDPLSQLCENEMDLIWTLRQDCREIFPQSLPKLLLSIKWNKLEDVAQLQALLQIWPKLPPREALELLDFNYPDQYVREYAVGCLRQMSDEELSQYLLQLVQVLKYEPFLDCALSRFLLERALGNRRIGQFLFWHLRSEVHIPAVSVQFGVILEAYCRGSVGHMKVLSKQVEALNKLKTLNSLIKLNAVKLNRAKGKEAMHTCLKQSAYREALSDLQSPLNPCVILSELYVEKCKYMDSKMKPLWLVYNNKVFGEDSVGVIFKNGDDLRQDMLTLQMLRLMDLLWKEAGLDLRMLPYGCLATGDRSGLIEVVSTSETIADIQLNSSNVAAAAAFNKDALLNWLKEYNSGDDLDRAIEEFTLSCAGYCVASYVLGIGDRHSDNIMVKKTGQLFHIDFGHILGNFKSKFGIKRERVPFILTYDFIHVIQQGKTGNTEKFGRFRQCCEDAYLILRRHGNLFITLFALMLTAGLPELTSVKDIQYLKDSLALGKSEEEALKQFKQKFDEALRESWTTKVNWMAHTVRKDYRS
T3 sequence (P27986 whole entry partner): as the sequence (P27986 whole entry partner) above
T2 sequence (P42336 whole entry): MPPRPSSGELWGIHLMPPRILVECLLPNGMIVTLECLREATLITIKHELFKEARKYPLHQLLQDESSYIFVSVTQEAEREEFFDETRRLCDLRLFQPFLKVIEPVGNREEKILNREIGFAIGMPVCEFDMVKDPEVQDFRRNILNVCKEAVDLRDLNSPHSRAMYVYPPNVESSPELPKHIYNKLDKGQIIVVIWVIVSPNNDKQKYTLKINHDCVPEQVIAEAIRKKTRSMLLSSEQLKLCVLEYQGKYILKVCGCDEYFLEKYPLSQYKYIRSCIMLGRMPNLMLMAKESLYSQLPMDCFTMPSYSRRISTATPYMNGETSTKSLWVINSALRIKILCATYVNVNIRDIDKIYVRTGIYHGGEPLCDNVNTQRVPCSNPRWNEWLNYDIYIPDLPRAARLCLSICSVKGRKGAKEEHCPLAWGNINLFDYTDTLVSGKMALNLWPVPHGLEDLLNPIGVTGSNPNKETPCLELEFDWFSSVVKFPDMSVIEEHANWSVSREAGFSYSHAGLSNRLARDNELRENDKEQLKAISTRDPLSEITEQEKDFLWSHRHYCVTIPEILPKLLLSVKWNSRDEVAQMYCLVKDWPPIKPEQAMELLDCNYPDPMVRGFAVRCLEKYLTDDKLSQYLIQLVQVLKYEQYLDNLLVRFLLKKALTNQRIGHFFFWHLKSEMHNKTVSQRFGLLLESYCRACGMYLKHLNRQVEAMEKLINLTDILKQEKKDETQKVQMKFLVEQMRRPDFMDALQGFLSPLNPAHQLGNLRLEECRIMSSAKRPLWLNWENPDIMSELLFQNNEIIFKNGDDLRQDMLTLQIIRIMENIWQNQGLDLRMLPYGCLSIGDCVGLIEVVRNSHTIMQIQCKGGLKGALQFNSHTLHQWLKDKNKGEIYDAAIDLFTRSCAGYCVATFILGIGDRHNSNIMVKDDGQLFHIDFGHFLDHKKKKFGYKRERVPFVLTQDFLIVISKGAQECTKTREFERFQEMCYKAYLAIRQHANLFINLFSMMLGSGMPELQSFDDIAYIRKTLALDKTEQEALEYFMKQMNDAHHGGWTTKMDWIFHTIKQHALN
T2 sequence (P27986 whole entry partner): as the sequence (P27986 whole entry partner) above

AUClast [1, 2] | clearance [1, 2] | bioavailability ([1]; plasma, PO 10 mg/kg vs IV 5 mg/kg, male CD1 mouse) | IC50 (PI3K p110γ) | IC50 (PI3K p110α) | IC50 (PI3K p110β) | IC50 (PI3K p110δ) | SMILES
 |  |  | 500 to 1000 nM | ≤ 500 nM | ≤ 500 nM | ≤ 500 nM | O=S1(=O)CC2(CN(Cc3cnc4oc5c(N6CCOCC6)nc(-c6cccc7[nH]ccc67)nc5c4c3)C2)C1 [Example AB, 6-{[4-(1H-Indol-4-yl)-6-(morpholin-4-yl)-8-oxa-3,5,10-triazatricyclo[7.4.0.0^2^,7]trideca-1(13),2(7),3,5,9,11-hexaen-12-yl]methyl}-2λ^6-thia-6-azaspiro[3.3]heptane-2,2-dione]
 |  |  | ≤ 500 nM | ≤ 500 nM | ≤ 500 nM | ≤ 500 nM | c1cc(-c2nc(N3CCOCC3)c3oc4ncc(CN5CCSC5)cc4c3n2)c2cc[nH]c2c1 [Example AC, 4-(1H-Indol-4-yl)-6-(morpholin-4-yl)-12-[(1,3-thiazolidin-3-yl)methyl]-8-oxa-3,5,10-triazatricyclo[7.4.0.0^2^,7]trideca-1(13),2(7),3,5,9,11-hexaene]
 |  |  | ≤ 500 nM | ≤ 500 nM | ≤ 500 nM | ≤ 500 nM | CS(=O)(=O)CCNCc1cnc2oc3c(N4CCOCC4)nc(-c4cccc5[nH]ccc45)nc3c2c1 [Example AD, {[4-(1H-Indol-4-yl)-6-(morpholin-4-yl)-8-oxa-3,5,10-triazatricyclo[7.4.0.0^2^,7]trideca-1(13),2(7),3,5,9,11-hexaen-12-yl]methyl}(2-methanesulfonylethyl)amine]

Continued, compound first:

SMILES | AUClast [1, 2] | clearance [1, 2] | bioavailability ([1]; plasma, PO 10 mg/kg vs IV 5 mg/kg, male CD1 mouse) | IC50 (PI3K p110γ) | IC50 (PI3K p110α) | IC50 (PI3K p110β) | IC50 (PI3K p110δ)
c1cc(-c2nc(N3CCOCC3)c3oc4ncc(CN5CCCCC5)cc4c3n2)c2cc[nH]c2c1 | 1245 ng·mL·h | 66.1 mL/min/kg | 27.8% |  |  |  | 
CCS(=O)(=O)CCN(C)Cc1cnc2oc3c(N4CCOCC4)nc(-c4cccc5[nH]ccc45)nc3c2c1 [Example AE] |  |  |  | ≤ 500 nM | ≤ 500 nM | ≤ 500 nM | ≤ 500 nM
c1cc(-c2nc(N3CCOCC3)c3oc4ncc(CN5CCSCC5)cc4c3n2)c2cc[nH]c2c1 [Example AF, 4-(1H-indol-4-yl)-6-(morpholin-4-yl)-12-[(thiomorpholin-4-yl)methyl]-8-oxa-3,5,10-triazatricyclo[7.4.0.0^2^,7]trideca-1(13),2(7),3,5,9,11-hexaene] |  |  |  | 500 to 1000 nM | ≤ 500 nM | ≤ 500 nM | ≤ 500 nM
